Data reported in publication PMC2151541 (The Journal of General Physiology, 2006).

Target: muscle acetylcholine nicotinic receptor (AChR), adult mouse muscle, wild type (Mus musculus, UniProt P02716+P04756+P09690+P20782)
Test: cell-attached single-channel patch clamp
Assay type: cell-based

muscle acetylcholine nicotinic receptor (AChR), adult mouse muscle, wild type, sequence (P02716 25-520): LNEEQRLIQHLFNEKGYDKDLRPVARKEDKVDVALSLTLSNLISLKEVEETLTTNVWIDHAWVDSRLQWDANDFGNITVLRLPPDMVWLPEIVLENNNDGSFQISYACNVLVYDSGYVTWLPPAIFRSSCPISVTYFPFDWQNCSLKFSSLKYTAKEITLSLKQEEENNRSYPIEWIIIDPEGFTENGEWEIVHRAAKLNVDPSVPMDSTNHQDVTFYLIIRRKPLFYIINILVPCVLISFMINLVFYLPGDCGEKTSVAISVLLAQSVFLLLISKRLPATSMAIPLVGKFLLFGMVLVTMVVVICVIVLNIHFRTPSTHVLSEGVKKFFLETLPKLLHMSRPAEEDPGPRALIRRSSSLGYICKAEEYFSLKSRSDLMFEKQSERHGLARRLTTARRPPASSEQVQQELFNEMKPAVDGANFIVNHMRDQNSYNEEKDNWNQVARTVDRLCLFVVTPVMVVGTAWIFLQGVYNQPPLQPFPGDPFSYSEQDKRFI
muscle acetylcholine nicotinic receptor (AChR), adult mouse muscle, wild type, sequence (P20782 21-493): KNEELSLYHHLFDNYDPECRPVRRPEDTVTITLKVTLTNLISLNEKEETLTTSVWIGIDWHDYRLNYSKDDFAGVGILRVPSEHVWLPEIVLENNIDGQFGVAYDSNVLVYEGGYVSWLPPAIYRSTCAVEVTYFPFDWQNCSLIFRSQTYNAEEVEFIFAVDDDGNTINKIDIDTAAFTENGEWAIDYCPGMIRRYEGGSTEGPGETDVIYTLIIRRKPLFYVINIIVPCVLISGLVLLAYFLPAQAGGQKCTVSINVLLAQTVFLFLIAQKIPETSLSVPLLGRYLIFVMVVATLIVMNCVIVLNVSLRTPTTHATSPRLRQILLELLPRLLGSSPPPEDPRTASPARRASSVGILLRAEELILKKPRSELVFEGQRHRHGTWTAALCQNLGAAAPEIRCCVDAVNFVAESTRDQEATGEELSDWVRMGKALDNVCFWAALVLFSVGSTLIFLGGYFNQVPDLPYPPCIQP
muscle acetylcholine nicotinic receptor (AChR), adult mouse muscle, wild type, sequence (P04756 21-457): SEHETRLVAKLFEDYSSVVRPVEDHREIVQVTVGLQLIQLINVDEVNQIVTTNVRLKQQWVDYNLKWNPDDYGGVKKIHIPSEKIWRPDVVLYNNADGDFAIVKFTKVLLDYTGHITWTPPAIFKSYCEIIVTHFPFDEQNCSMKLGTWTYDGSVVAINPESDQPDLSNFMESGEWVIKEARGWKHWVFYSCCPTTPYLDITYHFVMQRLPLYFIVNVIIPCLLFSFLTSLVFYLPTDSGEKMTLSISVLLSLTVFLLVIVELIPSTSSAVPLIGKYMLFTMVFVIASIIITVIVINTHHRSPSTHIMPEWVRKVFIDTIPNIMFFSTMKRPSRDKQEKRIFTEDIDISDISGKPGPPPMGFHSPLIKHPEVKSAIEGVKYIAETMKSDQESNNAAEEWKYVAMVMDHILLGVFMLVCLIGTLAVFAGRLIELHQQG
muscle acetylcholine nicotinic receptor (AChR), adult mouse muscle, wild type, sequence (P09690 24-501): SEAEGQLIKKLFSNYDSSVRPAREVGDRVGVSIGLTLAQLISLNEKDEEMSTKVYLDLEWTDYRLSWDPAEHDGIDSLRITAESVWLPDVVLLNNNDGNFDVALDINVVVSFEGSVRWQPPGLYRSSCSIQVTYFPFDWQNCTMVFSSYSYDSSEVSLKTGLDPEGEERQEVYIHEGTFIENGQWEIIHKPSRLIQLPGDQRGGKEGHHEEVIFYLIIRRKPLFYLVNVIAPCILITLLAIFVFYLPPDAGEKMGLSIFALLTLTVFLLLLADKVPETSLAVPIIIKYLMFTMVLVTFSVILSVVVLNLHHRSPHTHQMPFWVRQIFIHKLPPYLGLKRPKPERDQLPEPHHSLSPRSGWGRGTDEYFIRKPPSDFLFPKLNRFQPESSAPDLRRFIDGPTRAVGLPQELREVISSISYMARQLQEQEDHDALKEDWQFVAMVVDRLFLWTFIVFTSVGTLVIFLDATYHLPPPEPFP

- Kd: 12.5 mM
SMILES: C[N+](C)(C)CCO [choline]
